Experimental data taken from patent US9062074B2, “(9E)-15-(2-pyrrolidin-1-yl-ethoxy)-7,12,25-trioxa-19,21,24-triaza-tetracyclo[18.3.1.1(2.5).1(14,18)]hexacosa-1(24),2,4,9,14,16,18(26),20,22-nonaene citrate salt” (CTI BioPharma Corp., priority 2009, dated 2015).
Counter-ions that a name gives are not always drawn.

Assays:
Type in all cases: physicochemical
[1] = Thermogravimetric Analysis (TGA)
Experimental: Thermogravimetric Analysis (TGA) data were collected on a Mettler TGA/SDTA 851e equipped with a 34 position autosampler. The instrument was temperature calibrated using certified indium. Typically 5-30 mg of each sample was loaded onto a pre-weighed aluminium crucible and was heated at 10° C.min^−1 from ambient temperature to 350° C. A nitrogen purge at 50 ml.min^−1 was maintained over the sample. The instrument control and data analysis software was STARe v9.10.

[2] = Differential Scanning Calorimetry (DSC); details: heated at 10° C.min^−1
Experimental: Differential Scanning Calorimetry (DSC) data were collected on a Mettler DSC 823e equipped with a 34 position auto-sampler. The instrument was calibrated for energy and temperature using certified indium. Typically 0.5-3 mg of each sample, in a pin-holed aluminium pan, was heated at 10° C.min^−1 from 25° C. to 350° C. A nitrogen purge at 50 ml.min^−1 was maintained over the sample. The instrument control and data analysis software was STARe v9.10.

[3] = Phase stability by XRPD after storage at 40° C. and 75% relative humidity for one week; details: solid form by low resolution XRPD after one week
Experimental: Condition 2 (Low Resolution)
X-Ray Powder Diffraction patterns were also collected on a Bruker D8 diffractometer using Cu K[…] radiation (40 kV, 40 mA), θ-2θ goniometer, and divergence of V4 and receiving slits, a Ge monochromator and a Lynxeye detector. The instrument is performance checked using a certified Corundum standard (NIST 1976). The software used for data collection was Diffrac Plus XRD Commander v2.5.0 and the data were analysed and presented using Diffrac Plus EVA v 11.0.0.2 or v 13.0.0.2. Samples were run under ambient conditions as flat plate specimens using powder as received. Approximately 15 mg of the sample was gently packed into a cavity cut into polished, zerobackground (510) silicon wafer. The sample was rotated in its own plane during analysis. The details of the data collection are:
The samples which had been prepared for the collection of low resolution XRPD traces were placed in a chamber maintained at 40° C. and 75% relative humidity. After one week the samples were reanalysed by low resolution XRPD (Condition 2), to check for phase changes. It can be seen that no phase change has occurred, and that citrate salts of the invention are stable for at least one week under these conditions.

[4] = Solubility assessment (solvent added in 10 volume aliquots)
Experimental: For each solvent investigated, approximately 8 mg of compound 1 was weighed into an 8 ml screw top glass vial. The solvent was added in 10 volume aliquots and the mixture sonicated and warmed (with a hot-air gun) to encourage dissolution. If dissolution was not achieved after the addition of 100 volumes of solvent, a further 100 volumes was added.

[5] = Gravimetric Vapour Sorption (GVS)
Experimental: Sorption isotherms were obtained using a SMS DVS Intrinsic moisture sorption analyser, controlled by SMS Analysis Suite software. The sample temperature was maintained at 25° C. by the instrument controls. The humidity was controlled by mixing streams of dry and wet nitrogen, with a total flow rate of 200 ml.min^−1. The relative humidity was measured by a calibrated Rotronic probe (dynamic range of 1.0-100% RH), located near the sample. The weight change, (mass relaxation) of the sample as a function of % RH was constantly monitored by the microbalance (accuracy ±0.005 mg). Typically 5-20 mg of sample was placed in a tared mesh stainless steel basket under ambient conditions. The sample was loaded and unloaded at 40% RH and 25° C. (typical room conditions). A moisture sorption isotherm was performed as outlined below (2 scans giving 1 complete cycle). The standard isotherm was performed at 25° C. at 10% RH intervals over a 0.5-90% RH range.
The hygroscopicity of the citrate was investigated by carrying out a gravimetric vapour sorption experiment on Batch 4. A sample of approximately 20 mg was held at 25° C. whilst the humidity of its environment was changed through two complete cycles. […] The sample takes longer to reach equilibrium in the early stages of the experiment. This may be due to displacement of residual solvent.

[6] = Polymorphism assessment (XRPD after 25° C./50° C. cycles in solvent)
Experimental: The vials were then placed in a humidity chamber and subjected to cycles of 25° C./50° C. (8 hour cycles) for 24 hours. At the end of this time the samples were examined and then left with loosened lids to allow for evaporation of the solvent. Those samples which had dried out were then transferred to a quartz array, whilst those for which there was still solvent present, were filtered under vacuum onto a sinter. The samples were then analysed by XRPD to assess their crystalline state and form.

[7] = Solubility assessment (solvent added in 10 volume aliquots); remark: listed apart in the source

## C1=C2COC/C=C/COCc3cc(ccc3OCCN3CCCC3)Nc3nccc(n3)C(=C1)O2 [Batch 6]
[1]; 160 to 250° C.
  Thermogravimetric Analysis weight change: −20% w/w 160 to 250 °C
[1]; ambient to 160° C.
  Thermogravimetric Analysis weight change: −0.3% w/w ambient to
[2]
  Differential Scanning Calorimetry complex endotherm onset (significant thermal event): onset 176 °C
[3]
  Phase Stability 1 wk @ 40° C./75% RH: Crystalline Form 1

## C1=C2COC/C=C/COCc3cc(ccc3OCCN3CCCC3)Nc3nccc(n3)C(=C1)O2 [Compound I, 9E-15-(2-pyrrolidin-1-yl-ethoxy)-7,12,25-trioxa-19,21,24-triaza-tetracyclo[18.3.1.1(2,5).1(14,18)]hexacosa-1(24),2,4,9,14,16,18(26),20,22-nonaene]
[4]; 11 solvents, up to 200 volumes
  total dissolution in solvent screen: total dissolution was only achieved in water

## C1=C2COC/C=C/COCc3cc(ccc3OCCN3CCCC3)Nc3nccc(n3)C(=C1)O2 [citrate, 9E-15-(2-pyrrolidin-1-yl-ethoxy)-7,12,25-trioxa-19,21,24-triaza-tetracyclo[18.3.1.1(2,5).1(14,18)]hexacosa-1(24),2,4,9,14,16,18(26),20,22-nonaene citrate]
[5]; GVS, 0% RH to 90% RH
  hygroscopicity: not hygroscopic
[5]; between 0% RH and 90% RH, 25° C.
  maximum weight difference: less than 1 % w/w
[4]; organic solvents of the screen
  solubility in organic solvents: extremely limited
[6]; aqueous solution allowed to evaporate
  solid form of recovered solid (XRPD): amorphous
[6]; organic solvent screening samples
  solid form of residues (XRPD): Form 1
[7]
  level at which the salt dissolves in water: ≥ 100000 µg/mL
